The record followed here is patent US11040031B2, “Pyrazole derivatives as MALT1 inhibitors” (Janssen Pharmaceutica NV, priority 2018, dated 2021).

Where two headings read alike, the source gives them in different places.

Assay [1] deals with Secretion of IL10 by OCI-LY3 ABC-DLBCL cells. Briefly: Human IL10 Mesoscale assay (OCI-LY3). Format: cell-based. Conditions: read-out: Human IL10 Mesoscale assay (OCI-LY3). As to the method: (§1) NFKB signaling regulates the secretion of multiple cytokines, including IL6 and IL10. Secretion of the cytokines IL6 and IL10 by TMD8 or OCI-LY3 ABC-DLBCL cells was measured using a mesoscale assay.
(§2) Cell passage number should not exceed 30. Cells should be kept between 0.5-2.5 million cells per mL during culturing and cells should be supplemented every 2-3 days with fresh 50 µM beta-mercaptoenthanol. No beta-mercaptoethanol was used during the mesoscale assay.
(§3) DMSO control wells were used to determine the maximum signal (High Control (HC)). […] Compounds and cells were incubated for 24 h at 37° C. and 5% CO2 (assay volume is 150 μL). After 24 h of incubation 50 μL of the supernatant was transferred to a MSD plate (V-Plex Proinflammation Panel 1 (human) kit, Mesoscale (MSD)) and incubated for 2 h with vigorous shaking (600 rpm) at room temperature. Following incubation, plates were washed 3× with PBS+0.05% Tween-20 and 25 μL detection antibody solution (IL6 & IL10 antibodies in diluent 3 (MSD)) was added per well followed by 2 h of incubation with vigorous shaking (600 rpm) at room temperature. After 3× washes with PBS+0.05% Tween-20, plates were incubated with 150 μL 2× Read Buffer T and read on SECTOR imager.

Assay [2] deals with Secretion of IL6 by OCI-LY3 ABC-DLBCL cells. Briefly: Human IL6 Mesoscale assay (OCI-LY3). Format: cell-based. As to conditions: read-out: Human IL6 Mesoscale assay (OCI-LY3). As to the method: as §1, §2, §3
Assay [3] addresses T1, full-length MALT1 protein (Strep-MALT1(1-824)-His) (Homo sapiens, UniProt Q9UDY8).
T1 sequence (Q9UDY8 1-824): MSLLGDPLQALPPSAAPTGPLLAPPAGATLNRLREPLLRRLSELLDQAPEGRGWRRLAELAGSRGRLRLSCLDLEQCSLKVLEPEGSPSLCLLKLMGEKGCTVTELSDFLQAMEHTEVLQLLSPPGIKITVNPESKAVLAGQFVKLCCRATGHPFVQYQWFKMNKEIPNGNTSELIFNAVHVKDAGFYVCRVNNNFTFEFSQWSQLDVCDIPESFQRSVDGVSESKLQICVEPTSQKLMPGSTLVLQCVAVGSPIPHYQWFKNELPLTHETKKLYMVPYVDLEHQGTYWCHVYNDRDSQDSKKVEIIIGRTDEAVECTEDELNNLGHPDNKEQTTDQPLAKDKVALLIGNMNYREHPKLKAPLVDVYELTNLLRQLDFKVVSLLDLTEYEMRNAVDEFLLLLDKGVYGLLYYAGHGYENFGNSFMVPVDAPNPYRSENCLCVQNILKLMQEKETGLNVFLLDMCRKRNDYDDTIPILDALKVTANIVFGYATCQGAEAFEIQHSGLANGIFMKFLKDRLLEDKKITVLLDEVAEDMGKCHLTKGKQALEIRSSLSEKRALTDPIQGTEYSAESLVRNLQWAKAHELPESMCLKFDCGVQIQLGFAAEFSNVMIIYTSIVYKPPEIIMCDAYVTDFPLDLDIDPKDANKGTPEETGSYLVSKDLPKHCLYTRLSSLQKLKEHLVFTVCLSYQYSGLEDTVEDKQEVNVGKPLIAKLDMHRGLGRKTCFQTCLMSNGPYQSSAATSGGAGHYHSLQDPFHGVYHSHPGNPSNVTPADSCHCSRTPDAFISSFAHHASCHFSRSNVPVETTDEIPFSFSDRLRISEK
Briefly: biochemical.
Description: MALT1 protease activity was assessed in an in vitro assay using a tetrapeptide as substrate and full-length MALT1 protein (Strep-MALT1(1-824)-His) purified from baculovirus-infected insect cells. The tetrapeptide LRSR is coupled to AMC (7-amino-4-methylcoumarin) and provides a quenched, fluorescent substrate for the MALT1 protease (SM Biochemicals). Cleavage of AMC from the Arginine residue results in an increase in coumarin fluorescence measured at 460 nm (excitation 355 nm). […] Test compounds were spotted at 50 nL in 100% DMSO per well of a black 384-Proxiplate (Perkin Elmer). Test compound concentrations ranged from 30 μM to 0.5 nM using 11 dilution steps (1:3). Background signal was measured from control wells containing assay buffer without enzyme which functions as low control (LC). High control (HC) values were generated using the reaction with enzyme but no compound treatment. Compounds were pre-incubated with MALT1 enzyme for 50 minutes at RT. Substrate was added subsequently and fluorescence was measured in Labsystems fluoroskan at excitation 355 nm and emission 460 nm to determine time 0. The reaction was subsequently incubated for 4 h at RT and fluorescence was measured. […] The enzyme reaction was linear during the 4 h incubation period.
IC50 values were calculated using the following formula (Z prime should be >0.5):
From this an IC50 value (inhibitory concentration causing 50% inhibition) can be obtained. An estimate of the slope of the plot in terms of the Hill coefficient was also obtained.
With y=estimated response • UB=upper bound • LB=lower bound • h=hill

[4] abbreviates: OCI-LY3 cells, 24 h incubation, supernatant, MSD V-Plex.

As for `O=C(Nc1cnc(-n2nccn2)c(Cl)c1)c1cnn(-c2ccc(F)cc2Cl)c1C(F)(F)F` [Cpd 107, 1-(2-chloro-4-fluorophenyl)-N-(5-chloro-6-(2H-1,2,3-triazol-2-yl)pyridin-3-yl)-5-(trifluoromethyl)-1H-pyrazole-4-carboxamide], the values for the IC50 in assay [1] (setting [4]), in assay [2] (setting [4]) and in assay [3] were 112 nM, 158 nM and 141 nM, respectively.
Turning to `Cc1cc(F)cnc1-n1ncc(C(=O)Nc2cnc(-n3nccn3)c(C#N)c2)c1C(F)(F)F` [Cpd 113, N-(5-cyano-6-(2H-1,2,3-triazol-2-yl)pyridin-3-yl)-1-(5-fluoro-3-methylpyridin-2-yl)-5-(trifluoromethyl)-1H-pyrazole-4-carboxamide], the IC50 came to 324 nM in assay [1] (setting [4]), 372 nM in assay [2] (setting [4]) and 158 nM in assay [3].
The matching figures for `N#Cc1cc(NC(=O)c2cnn(-c3ccccc3Cl)c2C(F)(F)F)cnc1-n1nccn1` [Cpd 116, 1-(2-chlorophenyl)-N-(5-cyano-6-(2H-1,2,3-triazol-2-yl)pyridin-3-yl)-5-(trifluoromethyl)-1H-pyrazole-4-carboxamide]: 105 nM, 107 nM and 117 nM.
The matching figures for `Nc1ccnc(-n2ncc(C(=O)Nc3cnc(-n4nccn4)c(Cl)c3)c2C(F)(F)F)c1Cl` [Cpd 119, 1-(4-Amino-3-chloropyridin-2-yl)-N-(5-chloro-6-(2H-1,2,3-triazol-2-yl)pyridin-3-yl)-5-(trifluoromethyl)-1H-pyrazole-4-carboxamide]: 148 nM, 282 nM and 209 nM.
In the case of `Cc1cc(C#N)ccc1-n1ncc(C(=O)Nc2cnc(-n3nccn3)c(C#N)c2)c1C(F)(F)F` [Cpd 126, 1-(4-cyano-2-methylphenyl)-N-(5-cyano-6-(2H-1,2,3-triazol-2-yl)pyridin-3-yl)-5-(trifluoromethyl)-1H-pyrazole-4-carboxamide], the IC50 in assay [1] (OCI-Ly3, 24 h) turned out to be 68 nM; in assay [2] (OCI-Ly3, 24 h), 76 nM; in assay [3], 38 nM.
Regarding `CSc1ccccc1-n1ncc(C(=O)Nc2cnc(-n3nccn3)c(Cl)c2)c1C(F)(F)F` [Cpd 137, N-(5-chloro-6-(2H-1,2,3-triazol-2-yl)pyridin-3-yl)-1-(2-(methylthio)phenyl)-5-(trifluoromethyl)-1H-pyrazole-4-carboxamide], the IC50 in assay [1] (setting [4]) amounted to 100 nM; in assay [2] (setting [4]), 123 nM; in assay [3] it was 151 nM.
Take `N#Cc1ccc(-n2ncc(C(=O)Nc3cnc(-n4nccn4)c(C#N)c3)c2C(F)(F)F)nc1N` [Cpd 139, 1-(6-Amino-5-cyanopyridin-2-yl)-N-(5-cyano-6-(2H-1,2,3-triazol-2-yl)pyridin-3-yl)-5-(trifluoromethyl)-1H-pyrazole-4-carboxamide]: the values for the IC50 in assay [1] (setting [4]), in assay [2] (setting [4]) and in assay [3] were 76 nM, 74 nM and 26 nM, respectively.
For the compound `N#Cc1ccc(-n2ncc(C(=O)Nc3cnc(-n4nccn4)c(Cl)c3)c2C(F)(F)F)nc1N` [Cpd 140, 1-(6-amino-5-cyanopyridin-2-yl)-N-(5-chloro-6-(2H-1,2,3-triazol-2-yl)pyridin-3-yl)-5-(trifluoromethyl)-1H-pyrazole-4-carboxamide], the IC50 in assay [1] (setting [4]) is 123 nM; in assay [2] (setting [4]), 132 nM; in assay [3] it was 58 nM.
The matching figures for `Cc1ccc(N)nc1-n1ncc(C(=O)Nc2cnc(-n3nccn3)c(C#N)c2)c1C(F)(F)F` [Cpd 141, 1-(6-amino-3-methylpyridin-2-yl)-N-(5-cyano-6-(2H-1,2,3-triazol-2-yl)pyridin-3-yl)-5-(trifluoromethyl)-1H-pyrazole-4-carboxamide]: 407 nM, 427 nM and 100 nM.
Turning to `Cc1cnc(N)cc1-n1ncc(C(=O)Nc2cnc(-n3nccn3)c(C#N)c2)c1C(F)(F)F` [Cpd 142, 1-(2-amino-5-methylpyridin-4-yl)-N-(5-cyano-6-(2H-1,2,3-triazol-2-yl)pyridin-3-yl)-5-(trifluoromethyl)-1H-pyrazole-4-carboxamide], the IC50 in assay [1] (setting [4]) was 355 nM; in assay [2] (setting [4]), 676 nM; in assay [3] it was 22 nM.
With `Cc1c(-n2ncc(C(=O)Nc3cnc(-n4nccn4)c(C#N)c3)c2C(F)(F)F)ccnc1N` [Cpd 143, 1-(2-amino-3-methylpyridin-4-yl)-N-(5-cyano-6-(2H-1,2,3-triazol-2-yl)pyridin-3-yl)-5-(trifluoromethyl)-1H-pyrazole-4-carboxamide], the IC50 in assay [1] (OCI-Ly3, 24 h) was 617 nM; in assay [2] (OCI-Ly3, 24 h), 1050 nM; in assay [3], 110 nM.
As to `N#Cc1cc(NC(=O)c2cnn(-c3ccc(Cl)c(N)n3)c2C(F)(F)F)cnc1-n1nccn1` [Cpd 144, 1-(6-amino-5-chloropyridin-2-yl)-N-(5-cyano-6-(2H-1,2,3-triazol-2-yl)pyridin-3-yl)-5-(trifluoromethyl)-1H-pyrazole-4-carboxamide], the IC50 in assay [1] (OCI-Ly3, 24 h) came to 26 nM; in assay [2] (OCI-Ly3, 24 h), 46 nM; in assay [3] it was 35 nM.
Turning to `Cc1cc(F)c(N)nc1-n1ncc(C(=O)Nc2cnc(-n3nccn3)c(C#N)c2)c1C(F)(F)F` [Cpd 145, 1-(6-amino-5-fluoro-3-methylpyridin-2-yl)-N-(5-cyano-6-(2H-1,2,3-triazol-2-yl)pyridin-3-yl)-5-(trifluoromethyl)-1H-pyrazole-4-carboxamide], the IC50 in assay [1] (OCI-Ly3, 24 h) is 18 nM; in assay [2] (OCI-Ly3, 24 h), 17 nM; in assay [3] it was 32 nM.
Take `Cc1cc(F)c(N)nc1-n1ncc(C(=O)Nc2cnc(-n3nccn3)c(Cl)c2)c1C(F)(F)F` [Cpd 146, 1-(6-amino-5-fluoro-3-methylpyridin-2-yl)-N-(5-chloro-6-(2H-1,2,3-triazol-2-yl)pyridin-3-yl)-5-(trifluoromethyl)-1H-pyrazole-4-carboxamide]: the IC50 in assay [1] (OCI-Ly3, 24 h) turned out to be 158 nM; in assay [2] (OCI-Ly3, 24 h) it was 195 nM; in assay [3] it was 107 nM.
As to `Nc1nc(-n2ncc(C(=O)Nc3cnc(-n4nccn4)c(C(F)(F)F)c3)c2C(F)(F)F)ccc1F` [Cpd 147, N-(6-(2H-1,2,3-triazol-2-yl)-5-(trifluoromethyl)pyridin-3-yl)-1-(6-amino-5-fluoropyridin-2-yl)-5-(trifluoromethyl)-1H-pyrazole-4-carboxamide], the IC50 in assay [1] (OCI-Ly3, 24 h) amounted to 40 nM; in assay [2] (OCI-Ly3, 24 h), 52 nM; in assay [3], 69 nM.
In the same order, the values of `N#Cc1cc(NC(=O)c2cnn(-c3cc(N)ncc3Cl)c2C(F)(F)F)cnc1-n1nccn1` [Cpd 148, 1-(2-amino-5-chloropyridin-4-yl)-N-(5-cyano-6-(2H-1,2,3-triazol-2-yl)pyridin-3-yl)-5-(trifluoromethyl)-1H-pyrazole-4-carboxamide] are 263 nM, 398 nM and 39 nM.
Turning to `Nc1cc(-n2ncc(C(=O)Nc3cnc(-n4nccn4)c(Cl)c3)c2C(F)(F)F)c(Cl)cn1` [Cpd 149, 1-(2-amino-5-chloropyridin-4-yl)-N-(5-chloro-6-(2H-1,2,3-triazol-2-yl)pyridin-3-yl)-5-(trifluoromethyl)-1H-pyrazole-4-carboxamide], the IC50 in assay [1] (setting [4]) amounted to 155 nM; in assay [2] (setting [4]), 166 nM; in assay [3] it was 85 nM.
In the same order, the values of `CNc1nc(-n2ncc(C(=O)Nc3cnc(-n4nccn4)c(C#N)c3)c2C(F)(F)F)ccc1F` [Cpd 150, N-(5-cyano-6-(2H-1,2,3-triazol-2-yl)pyridin-3-yl)-1-(5-fluoro-6-(methylamino)pyridin-2-yl)-5-(trifluoromethyl)-1H-pyrazole-4-carboxamide] are 204 nM, 269 nM and 100 nM.
